Reference: DBAASP
≈ marks a conversion by molar mass, not a printed value.

Experiments:
Assay in all cases: ≥ marks a high value that may be exact or a test limit, other limits are often not marked, values filed in µg/mL are converted to µM
[1] = test system: Candida albicans NCPF 1467
[2] = test system: Enterococcus faecalis NCTC 12697
[3] = test system: Escherichia coli NCTC 10418
[4] = test system: Pseudomonas aeruginosa ATCC 27853
[5] = test system: Staphylococcus aureus ATCC 12493
[6] = test system: Staphylococcus aureus NCTC 10788
Acinetobacter baumannii = test system: Acinetobacter baumannii
[7] = test system: Escherichia coli ATCC 25922
Escherichia coli K88 = test system: Escherichia coli K88
Escherichia coli K99 = test system: Escherichia coli K99
Escherichia coli UB1005 = test system: Escherichia coli UB1005
Escherichia coli = test system: Escherichia coli
Klebsiella pneumoniae = test system: Klebsiella pneumoniae
[8] = test system: Pseudomonas aeruginosa CICC 21625
[9] = test system: Pseudomonas aeruginosa CICC 21630
[10] = test system: Pseudomonas aeruginosa PAO1
Pseudomonas aeruginosa = test system: Pseudomonas aeruginosa
[11] = test system: Salmonella enterica subsp. enterica serovar Pullorum C79-13
[12] = test system: Salmonella enterica subsp. enterica serovar Typhimurium ATCC 14028
[13] = test system: Salmonella enterica subsp. enterica serovar Typhimurium C77-31
[14] = test system: Acinetobacter baumannii ATCC 19606
[15] = test system: Bacillus subtilis ATCC 6051
[16] = test system: Candida albicans ATCC 90028
[17] = test system: Cryptococcus neoformans ATCC 208821
[18] = test system: Klebsiella pneumoniae ATCC 13883
[19] = test system: Klebsiella pneumoniae ATCC 700603
[20] = test system: Klebsiella pneumoniae ATCC BAA-2146
[21] = test system: Staphylococcus aureus ATCC 43300

| Structure (SMILES) | MIC [4] [µM] | MIC (Acinetobacter baumannii) [µM] | MIC [7] [µM] | MIC (Escherichia coli K88) [µM] | MIC (Escherichia coli K99) [µM] | MIC (Escherichia coli UB1005) [µM] | MIC (Escherichia coli) [µM] | MIC (Klebsiella pneumoniae) [µM] | MIC [8] [µM] | MIC [9] [µM] | MIC [10] [µM] | MIC (Pseudomonas aeruginosa) [µM] | MIC [11] [µM] | MIC [12] [µM] | MIC [13] [µM] | also measured |
| --- | --- | --- | --- | --- | --- | --- | --- | --- | --- | --- | --- | --- | --- | --- | --- | --- |
| CC[C@H](C)[C@H](NC(=O)CNC(=O)[C@@H]1CCCN1C(=O)[C@H](CC(C)C)NC(=O)[C@@H](N)Cc1ccccc1)C(=O)N[C@@H](CC(C)C)C(=O)N[C@@H](CCCCN)C(=O)N[C@H](C(=O)N[C@@H](C)C(=O)N[C@@H](C)C(=O)N[C@@H](CCCCN)C(N)=O)C(C)C [FLPGILKVAAK] | > 512 | – | – | – | – | – | – | – | – | – | – | – | – | – | – | MIC [1]: ≥ 512 µM; MIC [2]: ≥ 512 µM; MIC [3]: ≥ 512 µM; MIC [5]: ≥ 512 µM; MIC [6]: ≥ 256 µM |
| CC[C@H](C)[C@H](N)C(=O)N[C@@H](CCCCN)C(=O)N1CCC[C@H]1C(=O)N[C@H](C(=O)N[C@H](C(=O)N[C@@H](CCCCN)C(=O)N1CCC[C@H]1C(=O)N[C@H](C(=O)N[C@H](C(=O)N[C@@H](CCCCN)C(=O)N1CCC[C@H]1C(=O)N[C@H](C(=O)N[C@H](C(=O)N[C@@H](CCCCN)C(=O)N1CCC[C@H]1C(=O)N[C@H](C(=O)N[C@H](C(=O)N[C@@H](CCCCN)C(=O)N1CCC[C@H]1C(=O)N[C@H](C(N)=O)[C@@H](C)CC)[C@@H](C)CC)[C@@H](C)CC)[C@@H](C)CC)[C@@H](C)CC)[C@@H](C)CC)[C@@H](C)CC)[C@@H](C)CC)[C@@H](C)CC [IKPIIKPIIKPIIKPIIKPI] | > 64 | ≥ 64 | > 64 | ≥ 64 | ≥ 64 | ≥ 64 | > 64 | > 64 | ≥ 64 | ≥ 64 | > 64 | > 64 | ≥ 64 | > 64 | ≥ 64 | – |
| CC[C@H](C)[C@H](N)C(=O)N[C@@H](CCCN=C(N)N)C(=O)N1CCC[C@H]1C(=O)N[C@H](C(=O)N[C@H](C(=O)N[C@@H](CCCN=C(N)N)C(=O)N1CCC[C@H]1C(=O)N[C@H](C(=O)N[C@H](C(=O)N[C@@H](CCCN=C(N)N)C(=O)N1CCC[C@H]1C(=O)N[C@H](C(=O)N[C@H](C(=O)N[C@@H](CCCN=C(N)N)C(=O)N1CCC[C@H]1C(=O)N[C@H](C(=O)N[C@H](C(=O)N[C@@H](CCCN=C(N)N)C(=O)N1CCC[C@H]1C(=O)N[C@H](C(N)=O)[C@@H](C)CC)[C@@H](C)CC)[C@@H](C)CC)[C@@H](C)CC)[C@@H](C)CC)[C@@H](C)CC)[C@@H](C)CC)[C@@H](C)CC)[C@@H](C)CC [IRPIIRPIIRPIIRPIIRPI] | 32 (≈ 77.3 µg/mL) | 4 (≈ 9.66 µg/mL) | 8 (≈ 19.3 µg/mL) | 1 (≈ 2.42 µg/mL) | 4 (≈ 9.66 µg/mL) | 4 (≈ 9.66 µg/mL) | 8 (≈ 19.3 µg/mL) | 8 (≈ 19.3 µg/mL) | ≥ 64 | ≥ 64 | 64 (≈ 155 µg/mL) | > 64 | 8 (≈ 19.3 µg/mL) | 8 (≈ 19.3 µg/mL) | 16 (≈ 38.6 µg/mL) | – |
| CC(C)C[C@H](NC(=O)[C@@H]1CCCN1C(=O)[C@H](CCCCN)NC(=O)[C@H](CC(C)C)NC(=O)[C@H](CC(C)C)NC(=O)[C@@H]1CCCN1C(=O)[C@H](CCCCN)NC(=O)[C@H](CC(C)C)NC(=O)[C@H](CC(C)C)NC(=O)[C@@H]1CCCN1C(=O)[C@H](CCCCN)NC(=O)[C@H](CC(C)C)NC(=O)[C@H](CC(C)C)NC(=O)[C@@H]1CCCN1C(=O)[C@H](CCCCN)NC(=O)[C@H](CC(C)C)NC(=O)[C@H](CC(C)C)NC(=O)[C@@H]1CCCN1C(=O)[C@H](CCCCN)NC(=O)[C@H](CC(C)C)NC(=O)[C@H](CC(C)C)NC(=O)[C@@H]1CCCN1C(=O)[C@H](CCCCN)NC(=O)[C@H](CC(C)C)NC(=O)[C@H](CC(C)C)NC(=O)[C@@H]1CCCN1C(=O)[C@H](CCCCN)NC(=O)[C@@H](N)CC(C)C)C(N)=O [LKPLLKPLLKPLLKPLLKPLLKPLLKPL] | 2 (≈ 6.36 µg/mL) | 1 (≈ 3.18 µg/mL) | 0.5 (≈ 1.59 µg/mL) | 0.5 (≈ 1.59 µg/mL) | 1 (≈ 3.18 µg/mL) | 1 (≈ 3.18 µg/mL) | 2 (≈ 6.36 µg/mL) | 1 (≈ 3.18 µg/mL) | 8 (≈ 25.4 µg/mL) | 2 (≈ 6.36 µg/mL) | 1 (≈ 3.18 µg/mL) | 5.66 (≈ 18 µg/mL) | 2 (≈ 6.36 µg/mL) | 1 (≈ 3.18 µg/mL) | 2 (≈ 6.36 µg/mL) | – |
| CC(C)C[C@H](NC(=O)[C@@H]1CCCN1C(=O)[C@H](CCCCN)NC(=O)[C@H](CC(C)C)NC(=O)[C@H](CC(C)C)NC(=O)[C@@H]1CCCN1C(=O)[C@H](CCCCN)NC(=O)[C@H](CC(C)C)NC(=O)[C@H](CC(C)C)NC(=O)[C@@H]1CCCN1C(=O)[C@H](CCCCN)NC(=O)[C@H](CC(C)C)NC(=O)[C@H](CC(C)C)NC(=O)[C@@H]1CCCN1C(=O)[C@H](CCCCN)NC(=O)[C@H](CC(C)C)NC(=O)[C@H](CC(C)C)NC(=O)[C@@H]1CCCN1C(=O)[C@H](CCCCN)NC(=O)[C@H](CC(C)C)NC(=O)[C@H](CC(C)C)NC(=O)[C@@H]1CCCN1C(=O)[C@H](CCCCN)NC(=O)[C@@H](N)CC(C)C)C(N)=O [LKPLLKPLLKPLLKPLLKPLLKPL] | 4 (≈ 10.9 µg/mL) | 4 (≈ 10.9 µg/mL) | 1 (≈ 2.73 µg/mL) | 1 (≈ 2.73 µg/mL) | 2 (≈ 5.45 µg/mL) | 2 (≈ 5.45 µg/mL) | 2 (≈ 5.45 µg/mL) | 8 (≈ 21.8 µg/mL) | ≥ 64 | ≥ 32 | 4 (≈ 10.9 µg/mL) | 45.3 (≈ 123 µg/mL) | 4 (≈ 10.9 µg/mL) | 4 (≈ 10.9 µg/mL) | 8 (≈ 21.8 µg/mL) | – |

Further lines, with some results ahead:

| MIC [4] [µM] | MIC (Acinetobacter baumannii) [µM] | MIC [7] [µM] | MIC (Escherichia coli K88) [µM] | MIC (Escherichia coli K99) [µM] | MIC (Escherichia coli UB1005) [µM] | MIC (Escherichia coli) [µM] | MIC (Klebsiella pneumoniae) [µM] | MIC [8] [µM] | MIC [9] [µM] | MIC [10] [µM] | MIC (Pseudomonas aeruginosa) [µM] | MIC [11] [µM] | MIC [12] [µM] | MIC [13] [µM] | Structure (SMILES) | also measured |
| --- | --- | --- | --- | --- | --- | --- | --- | --- | --- | --- | --- | --- | --- | --- | --- | --- |
| 0.459 (≈ 0.998 µg/mL) | 0.918 (≈ 2 µg/mL) | 0.115 (≈ 0.25 µg/mL) | – | – | – | – | > 7.34 | – | – | – | 7.34 (≈ 16 µg/mL) | – | – | – | CC[C@H](C)[C@@H]1NC(=O)CNC(=O)[C@H](CCCN=C(N)N)NC(=O)[C@H](Cc2ccc(O)cc2)NC(=O)[C@@H]2CSSC[C@H](NC1=O)C(=O)N[C@@H](Cc1ccc(O)cc1)C(=O)N[C@@H](CCCN=C(N)N)C(=O)N[C@@H](CCCN=C(N)N)C(=O)N[C@H](C(=O)N[C@@H](CCCN=C(N)N)C(=O)O)CSSC[C@H](NC(=O)[C@H](Cc1c[nH]c3ccccc13)NC(=O)[C@@H](N)CCCCN)C(=O)NCC(=O)N[C@@H](CCCN=C(N)N)C(=O)N[C@@H](C(C)C)C(=O)N2 [KWCGRVCYRGICYRRCR] | MIC [14]: 0.23 µM (≈ 0.499 µg/mL); MIC [15]: 0.23 µM (≈ 0.499 µg/mL); MIC [16]: 3.67 µM (≈ 7.99 µg/mL); MIC [17]: 0.918 µM (≈ 2 µg/mL); MIC [18]: 0.918 µM (≈ 2 µg/mL); MIC [19]: 0.459 µM (≈ 0.998 µg/mL); MIC [20]: 0.918 µM (≈ 2 µg/mL); MIC [21]: 7.34 µM (≈ 16 µg/mL) |
| 64 (≈ 110 µg/mL) | – | – | – | – | – | – | – | – | – | – | – | – | – | – | CC(C)C[C@H](NC(=O)[C@H](C)NC(=O)[C@H](C)NC(=O)[C@H](CC(C)C)NC(=O)[C@H](CC(N)=O)NC(=O)[C@@H](NC(=O)[C@@H](NC(=O)[C@H](CC(C)C)NC(=O)[C@H](CCCCN)NC(=O)[C@H](CCCCN)NC(=O)[C@@H](NC(=O)[C@@H](NC(=O)[C@@H](NC(=O)[C@H](CC(C)C)NC(=O)[C@H](Cc1ccccc1)NC(=O)[C@@H](N)CO)[C@@H](C)O)[C@@H](C)O)C(C)C)C(C)C)[C@@H](C)O)C(N)=O [SFLTTVKKLVTNLAAL] | MIC [1]: 16 µM (≈ 27.5 µg/mL); MIC [2]: ≥ 32 µM; MIC [3]: 16 µM (≈ 27.5 µg/mL); MIC [5]: 16 µM (≈ 27.5 µg/mL); MIC [6]: 8 µM (≈ 13.7 µg/mL) |
